Source: ChEMBL document CHEMBL1201862, “PubChem BioAssay data set” (2004)
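All cell lines were grown in 96-well plates and treated with compound for 48 hours. GI50: concentration for 50% inhibition of growth.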 Calls of active or inactive are those of the source. Rule as the data show it: active = GI50 up to about 1.1 µM and inactive = higher.

What was measured:
Assay in all cases: inhibition of tumour cell growth, NCI panel, 48 h
[1] = tested on: HOP-92
[2] = tested on: A498
[3] = tested on: U-251
[4] = tested on: MDA-MB-435
[5] = tested on: SNB-19
[6] = tested on: T47D
[7] = tested on: NCI/ADR-RES
[8] = tested on: A549
[9] = tested on: HCT-15
[10] = tested on: BT-549
[11] = tested on: Hs-578T
[12] = tested on: NCI-H522
[13] = tested on: OVCAR-5
[14] = tested on: K562
[15] = tested on: CCRF-CEM
[16] = tested on: TK-10
[17] = tested on: M14
[18] = tested on: RXF 393
[19] = tested on: OVCAR-4
[20] = tested on: Malme-3M

Row | Compound | GI50 [1] | GI50 [2] | GI50 [3] | GI50 [4] | GI50 [5] | GI50 [6] | GI50 [7] | GI50 [8] | GI50 [9] | GI50 [10] | GI50 [11] | GI50 [12] | GI50 [13] | GI50 [14] | GI50 [15] | GI50 [16] | GI50 [17] | GI50 [18] | GI50 [19] | GI50 [20]
1 | CCOP(=O)(OCC)/C(C#N)=C/c1nccn1C | 63 µM (inactive) | > 100 µM (inactive) | > 100 µM (inactive) | > 100 µM (inactive) | > 100 µM (inactive) | > 100 µM (inactive) | > 100 µM (inactive) | > 100 µM (inactive) | > 100 µM | > 100 µM (inactive) | > 100 µM (inactive) | > 100 µM (inactive) | > 100 µM (inactive) | > 100 µM (inactive) | > 100 µM (inactive) | > 100 µM (inactive) | > 100 µM (inactive) |  |  | 
2 | CC1(C)C=C(/C=N/Nc2ccc([N+](=O)[O-])cc2)C(C#N)=C(O)C1(C#N)C#N | > 100 µM (inactive) |  | > 100 µM (inactive) | > 100 µM (inactive) | > 100 µM (inactive) | > 100 µM (inactive) | > 100 µM (inactive) | > 100 µM (inactive) | > 100 µM | > 100 µM (inactive) | > 100 µM (inactive) | > 100 µM (inactive) | > 100 µM (inactive) | > 100 µM (inactive) | > 100 µM (inactive) | > 100 µM (inactive) | > 100 µM (inactive) | > 100 µM (inactive) | > 100 µM (inactive) | > 100 µM (inactive)
3 | NC(CSC1c2ccccc2-c2ccccc21)C(=O)O (stereo not drawn) | > 100 µM (inactive) | > 100 µM (inactive) | > 100 µM (inactive) | > 100 µM (inactive) | > 100 µM (inactive) | > 100 µM (inactive) | > 100 µM (inactive) | > 100 µM (inactive) | > 100 µM | > 100 µM (inactive) | 23.9 µM (inactive) |  | > 100 µM (inactive) | > 100 µM (inactive) | > 100 µM (inactive) | > 100 µM (inactive) | > 100 µM (inactive) | > 100 µM (inactive) | > 100 µM (inactive) | > 100 µM (inactive)
4 | CCCCCCCCCCCCCCNC(=O)CCC(NC(=O)c1ccc(N(C)Cc2cnc3nc(N)nc(N)c3n2)cc1)C(=O)NCCCCCCCCCCCCCC (stereo not drawn) | 14.8 µM (inactive) | 14.5 µM (inactive) | 2.24 µM (inactive) | 0.207 µM (active) | 17.1 µM (inactive) | 8.51 µM (inactive) | 39.8 µM (inactive) | 5.45 µM (inactive) | 2.52 µM | 12.3 µM (inactive) | 8.39 µM (inactive) | 5.04 µM (inactive) | 19.2 µM (inactive) | < 0.0185 µM (active) | 0.773 µM (active) | > 39.1 µM (inactive) | 0.441 µM (active) | 11.6 µM (inactive) | 12.5 µM (inactive) | 
5 | Cc1c(CCCl)c(=O)n2c([nH]c3ccccc32)c1C#N | 1.5 µM (inactive) |  | 1.79 µM (inactive) | 1.83 µM (inactive) |  | 1.51 µM (inactive) | 1.27 µM (inactive) | 1.78 µM (inactive) | 1.57 µM | 1.91 µM (inactive) | 3.22 µM (inactive) |  | 2.33 µM (inactive) | 1.34 µM (inactive) | 0.402 µM (active) | 2.54 µM (inactive) | 1.6 µM (inactive) | 1.76 µM (inactive) | 1.77 µM (inactive) | 0.678 µM (active)
6 | Cc1cc2nc3c(N)nn(CCCN(C)C)c3nc2cc1C |  | > 100 µM (inactive) | 71.9 µM (inactive) | 90.8 µM (inactive) | > 100 µM (inactive) | > 100 µM (inactive) | 59.7 µM (inactive) | > 100 µM (inactive) | > 100 µM | > 100 µM (inactive) | > 100 µM (inactive) |  | > 100 µM (inactive) |  |  | 71.6 µM (inactive) | 30.1 µM (inactive) | > 100 µM (inactive) | > 100 µM (inactive) | 
7 | COc1cc(-c2oc3c(OC)c(O)c(OC)c(O)c3c(=O)c2OC)ccc1O |  | 37.3 µM (inactive) | 26.4 µM (inactive) | 17.8 µM (inactive) | > 100 µM (inactive) | 20.3 µM (inactive) | 50.8 µM (inactive) | 65.3 µM (inactive) | 28.8 µM | 37.9 µM (inactive) | 14.9 µM (inactive) | 29.1 µM (inactive) | > 100 µM (inactive) | 58.6 µM (inactive) | 35.2 µM (inactive) | 31.3 µM (inactive) | 10.4 µM (inactive) |  | 74.1 µM (inactive) | 34.7 µM (inactive)
8 | CC(C)=CCC/C(C)=C/CC/C(C)=C/CC/C(C)=C/CC/C(C)=C/CC/C(C)=C/CC/C(C)=C/CC/C(C)=C/CC/C(C)=C/CO [SOLANESOL] | > 100 µM (inactive) | > 100 µM (inactive) | > 100 µM (inactive) | > 100 µM (inactive) | > 100 µM (inactive) | > 100 µM (inactive) |  | > 100 µM (inactive) | > 100 µM | > 100 µM (inactive) | > 100 µM (inactive) | > 100 µM (inactive) | > 100 µM (inactive) | > 100 µM (inactive) | > 100 µM (inactive) | > 100 µM (inactive) | > 100 µM (inactive) | > 100 µM (inactive) | > 100 µM (inactive) | > 100 µM (inactive)
